Paper PMC8041284, “Tunable Methacrylamides for Covalent Ligand Directed Release Chemistry” (Journal of the American Chemical Society, 2021)
Read-outs that look alike come from different tables or passages of the source.

Tests used:
BTK [1] = biological target: T1, BTK (Homo sapiens, UniProt Q06187); conditions: 10 µM, inhibitor
BTK [2] = biological target: T1, BTK; assay: biochemical; conditions: read-out: BTK inhibition (%), 0.75 uM BTK, […] probe 3l, 15 min preincubation
primary mouse B cells = assay: B-cell response experiment (anti-IgM activation, CD86 by flow cytometry); assay type: cell-based; conditions: representative FACS plot, concentration not given
wild-type BTK = wild-type BTK (Homo sapiens, UniProt Q06187); assay: In vitro kinase activity assay (Nanosyn); conditions: BTK IC50, 0.6 nM BTK, 5 μM ATP; Figure 4C
[3] = 0.75 uM BTK, […] probe 3l, 15 min preincubation, BTK inhibition (%)
[4] = 0.75 uM BTK, […] probe 3l, 15 min preincubation

T1 sequence (Q06187 402-655 limits assumed): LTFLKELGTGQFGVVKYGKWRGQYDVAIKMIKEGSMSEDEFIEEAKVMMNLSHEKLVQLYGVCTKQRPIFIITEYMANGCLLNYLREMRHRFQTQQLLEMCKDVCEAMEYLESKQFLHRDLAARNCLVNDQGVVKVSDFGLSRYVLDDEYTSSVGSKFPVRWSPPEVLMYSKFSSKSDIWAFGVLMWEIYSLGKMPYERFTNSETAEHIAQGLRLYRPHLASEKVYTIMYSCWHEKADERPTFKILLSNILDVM
Chain of wild-type BTK (Q06187 whole entry): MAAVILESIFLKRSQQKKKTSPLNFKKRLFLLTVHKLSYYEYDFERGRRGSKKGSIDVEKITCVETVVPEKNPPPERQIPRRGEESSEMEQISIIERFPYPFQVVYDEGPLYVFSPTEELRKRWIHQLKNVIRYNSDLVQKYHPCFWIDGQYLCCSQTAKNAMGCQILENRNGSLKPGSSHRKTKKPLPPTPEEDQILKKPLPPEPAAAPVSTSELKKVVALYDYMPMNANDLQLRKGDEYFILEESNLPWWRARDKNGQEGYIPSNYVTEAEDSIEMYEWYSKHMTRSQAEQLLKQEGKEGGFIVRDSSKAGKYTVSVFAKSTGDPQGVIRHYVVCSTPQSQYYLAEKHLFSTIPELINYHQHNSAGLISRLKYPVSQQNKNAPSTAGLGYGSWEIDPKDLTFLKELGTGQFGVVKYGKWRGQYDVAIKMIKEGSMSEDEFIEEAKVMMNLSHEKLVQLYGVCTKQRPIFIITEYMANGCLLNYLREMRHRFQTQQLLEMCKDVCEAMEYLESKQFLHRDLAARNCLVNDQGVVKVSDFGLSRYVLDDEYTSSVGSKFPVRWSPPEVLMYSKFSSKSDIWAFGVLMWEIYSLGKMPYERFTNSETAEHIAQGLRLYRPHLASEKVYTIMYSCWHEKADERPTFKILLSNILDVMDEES

| BTK inhibition (%) (BTK [1]; [3]) | Compound | BTK inhibition (%) (BTK [1]; [4]) | further results |
| --- | --- | --- | --- |
| 5.4% | CNCCc1ccccn1 [PCM-0086123] |  | inhibition at 10 µM (BTK [2]): 5.5% |
| 77% | Cc1ccc(-n2[nH]c(C)c(N=Nc3cccc(-c4cccc(C(=O)O)c4)c3O)c2=O)cc1C [PCM-0214811] |  | inhibition at 10 µM (BTK [2]): 80.2% |
| 123.4% | COc1cc2nccc(Oc3ccc(NC(=O)C4(C(=O)Nc5ccc(F)cc5)CC4)cc3)c2cc1OC [PCM-0094920] |  | inhibition at 10 µM (BTK [2]): 86.9% |
| 31.7% | COc1cc(Nc2ncc(F)c(Nc3ccc4c(n3)NC(=O)C(C)(C)O4)n2)cc(OC)c1OC [PCM-0095093] |  | inhibition at 10 µM (BTK [2]): 32.4% |
| 17.8% | COc1cc2c3cc1Oc1c(OC)c(OC)cc4c1[C@@H](Cc1ccc(O)c(c1)Oc1ccc(cc1)C[C@@H]3N(C)CC2)N(C)CC4 [PCM-0214866] |  | inhibition at 10 µM (BTK [2]): 21.4% |
| 28% | Cc1cc(C2CCCCC2)n(O)c(=O)c1 [PCM-0086120] |  | inhibition at 10 µM (BTK [2]): 39.7% |
| 33.5% | CN(C)[C@@H]1C(=O)C(C(N)=O)=C(O)[C@@]2(O)C(=O)C3=C(O)c4c(O)cccc4[C@@](C)(O)[C@H]3[C@H](O)[C@@H]12 [PCM-0214652] |  | inhibition at 10 µM (BTK [2]): 35.8% |
|  | C=CC(=O)N1CCC[C@@H](n2nc(-c3ccc(Oc4ccccc4)cc3)c3c(N)ncnc32)C1 [ibrutinib, reference compound] |  | B220+ cells-activated (CD86 positive) (primary mouse B cells): 81.2% |
| 11.7% | CC[C@H]1OC(=O)[C@H](C)[C@@H](O[C@H]2C[C@@](C)(OC)[C@@H](O)[C@H](C)O2)[C@H](C)[C@@H](O[C@@H]2O[C@H](C)C[C@H](N(C)C)[C@H]2O)[C@](C)(O)C[C@@H](C)CN(C)[C@H](C)[C@@H](O)[C@]1(C)O [PCM-0216649] |  |  |
| 35.9% | CC1(C)[C@@H](O[C@H]2O[C@H](C(=O)O)[C@@H](O)[C@H](O)[C@H]2O[C@@H]2O[C@H](C(=O)O)[C@@H](O)[C@H](O)[C@H]2O)CC[C@]2(C)[C@H]3C(=O)C=C4[C@@H]5C[C@@](C)(C(=O)O)CC[C@]5(C)CC[C@@]4(C)[C@]3(C)CC[C@@H]12 [PCM-0214876] |  |  |
|  | COc1ccc2c(c1)[nH]c1c(C)nccc12 [PCM-0088555] | -17.1% |  |
|  | c1c2c(cc3c1OCO3)-c1cc3ccc4c(c3c[n+]1CC2)OCO4 [PCM-0216022] | -46.8% |  |
| -45.1% | CC(C(=O)O)c1cccc(Oc2ccccc2)c1 (centres unmarked) [PCM-0086452] |  |  |
|  | CN(C)C(=O)Oc1ccc[n+](C)c1 [PCM-0065636] | -25.7% |  |
| -12.4% | CN1[C@@H]2CC[C@H]1CC(OC(=O)c1c[nH]c3ccccc13)C2 (some centres unmarked) [PCM-0216191] |  |  |
| 91% | Cc1cc(Nc2cc(N3CCN(C)CC3)nc(/C=C/c3ccccc3)n2)n[nH]1 [PCM-0095056] |  | inhibition at 10 µM (BTK [2]): 85.5% |
|  | O=C(OC1C[C@H]2CC[C@@H](C1)[N+]21CCCC1)C(O)(c1ccccc1)c1ccccc1 (some centres unmarked) [PCM-0095326] | 7% |  |
| 39.3% | O=c1c(O)c(-c2ccc(O)c(O)c2)oc2cc(O)cc(O)c12 [PCM-0065486] |  | inhibition at 10 µM (BTK [2]): 48.2% |
|  | COC(=O)C1=C(C)NC(C)=C(C(=O)OCCN2CCN(C(c3ccccc3)c3ccccc3)CC2)C1c1cccc([N+](=O)[O-])c1 (centres unmarked) [PCM-0090281] | 34.2% |  |
| -11.7% | CN1[C@@H]2CC[C@H]1CC(OC(=O)c1c[nH]c3ccccc13)C2 (some centres unmarked) [PCM-0086109] |  |  |
|  | Nc1ncnc2c1ccn2[C@@H]1O[C@H](CO)[C@@H](O)[C@H]1O [PCM-0215658] |  | BTK inhibition (%) (BTK [1]): 10.8% |
|  | C=C(C)[C@H]1Cc2c(ccc3c2O[C@@H]2COc4cc(OC)c(OC)cc4[C@@H]2C3=O)O1 [PCM-0214933] | 6.2% |  |
|  | CC(C)=CCC[C@]1(C)C=Cc2c(O)c3c(c(CC=C(C)C)c2O1)O[C@]12C(=C[C@@H]4C[C@H]1C(C)(C)O[C@@]2(C/C=C(/C)C(=O)O)C4=O)C3=O [PCM-0214728] | -1.6% |  |
|  | C[N+]1(C)[C@@H]2CC(OC(=O)C(O)(c3cccs3)c3cccs3)C[C@H]1[C@@H]1O[C@@H]12 (some centres unmarked) [PCM-0095323] | -5.4% |  |
| 0% | C=C[C@]1(C)C[C@@H](OC(=O)CSCCN(CC)CC)[C@]2(C)[C@H](C)CC[C@]3(CCC(=O)[C@H]32)[C@@H](C)[C@@H]1O [PCM-0216045] |  |  |
|  | Cc1c([C@H](C)[C@@H]2NC[C@@H](C)C[C@H]2O)ccc2c1C[C@H]1[C@H]2CC=C2C[C@@H](O)CC[C@@]21C [PCM-0214977] |  | BTK inhibition (%) (BTK [1]): -2.3% |
|  | C=C(C)C(=O)N1CCC[C@@H](n2nc(-c3ccc(Oc4ccccc4)cc3)c3c(N)ncnc32)C1 [3a] |  | IC50 (wild-type BTK): 12.2 nM |

| BTK inhibition (%) (BTK [1]; [3]) | Compound | BTK inhibition (%) (BTK [1]; [4]) | further results |
| --- | --- | --- | --- |
|  | CN1CCc2cc3c(cc2[C@H]1[C@@H]1OC(=O)c2c1ccc1c2OCO1)OCO3 [PCM-0095582] |  | BTK inhibition (%) (BTK [1]): -0.8% |
|  | CCCCCc1cc(O)cc(O)c1 [PCM-0215917] |  | BTK inhibition (%) (BTK [1]): -13.9% |
|  | C[N+]1(C)[C@@H]2CC(OC(=O)[C@H](CO)c3ccccc3)C[C@H]1[C@@H]1O[C@@H]12 (some centres unmarked) [PCM-0095246] | 10.9% |  |
| -13.2% | COc1ccc2[nH]c([S@@+]([O-])Cc3ncc(C)c(OC)c3C)nc2c1 [PCM-0214571] |  |  |
|  | O=C(Nc1ccc(Oc2ccc(Cl)cc2)c(Cl)c1)c1cc(I)cc(I)c1O [PCM-0216018] | 37.1% |  |
|  | CC(=O)N1C[C@H](O)C[C@H]1C(=O)O [PCM-0215090] | 8.6% |  |
|  | COC(=O)c1ccccc1C(=O)OC [PCM-0216149] | -9.3% |  |
| 17.2% | CN1CC[C@H](c2c(O)cc(O)c3c(=O)cc(-c4ccccc4Cl)oc23)[C@H](O)C1 [PCM-0095354] |  | inhibition at 10 µM (BTK [2]): 29.7% |
|  | C[C@@H]1O[C@@H](O[C@H]2C[C@@H](O)[C@]3(CO)[C@H]4[C@H](O)C[C@]5(C)[C@@H](C6=CC(=O)OC6)CC[C@]5(O)[C@@H]4CC[C@]3(O)C2)[C@H](O)[C@H](O)[C@H]1O [PCM-0214805] | -5.4% |  |
| 13.2% | CCOc1ccccc1OCCN[C@H](C)Cc1ccc(OC)c(S(N)(=O)=O)c1 [PCM-0214853] |  | inhibition at 10 µM (BTK [2]): 7% |
|  | Cc1cc2c(C(C)C)c(O)c(O)c(C=O)c2c(O)c1-c1c(C)cc2c(C(C)C)c(O)c(O)c(C=O)c2c1O [PCM-0064881] | 75.5% |  |
|  | C[C@H]1CCC2N(C1)C[C@H]1C3CC4[C@@H](CC(=O)C5C[C@@H](O)CC[C@@]54C)C3CCC1[C@]2(C)O (some centres unmarked) [PCM-0216425] |  | BTK inhibition (%) (BTK [1]): -17.8% |
| -4.7% | C=C1[C@H](CO)[C@@H](O)C[C@@H]1n1cnc2c(=O)[nH]c(N)nc21 [PCM-0095007] |  |  |
| -14.7% | C/C=C(/C)C(=O)O[C@H]1[C@@H](OC(C)=O)c2c(ccc3ccc(=O)oc23)OC1(C)C [PCM-0216546] |  |  |
|  | C=C[C@@H]1C2=CCOC(=O)C2=CO[C@H]1O[C@@H]1O[C@H](CO)[C@@H](O)[C@H](O)[C@H]1O [PCM-0214971] | -0.8% |  |
|  | COc1ccc(/C=C/c2cc(OC)cc(OC)c2)cc1 [PCM-0214992] |  | BTK inhibition (%) (BTK [1]): 34.2% |
| 6.9% | CCCC(CCC)C(=O)O [PCM-0215159] |  |  |
| 78.6% | CN(c1ncccc1CNc1nc(Nc2ccc3c(c2)CC(=O)N3)ncc1C(F)(F)F)S(C)(=O)=O [PCM-0095340] |  | inhibition at 10 µM (BTK [2]): 84.8% |
|  | C/C=C\c1cc(OC)c(OC)cc1OC [PCM-0216406] |  | BTK inhibition (%) (BTK [1]): -3.9% |
|  | C[N+](C)(C)CCCCCCCCCC[N+](C)(C)C [PCM-0065265] | 11.7% |  |
| -6.2% | N[C@@H](C=O)[C@@H](O)[C@H](O)[C@H](O)CO [PCM-0214928] |  |  |
| 10.9% | Nc1ccc(S(=O)(=O)Nc2ncccn2)cc1 [PCM-0214831] |  |  |
|  | ClC(Cl)=C(c1ccc(Cl)cc1)c1ccc(Cl)cc1 [PCM-0216164] | 10.8% |  |
| -8.5% | C=C[C@]1(C)C[C@@H](OC(=O)CSCCN(CC)CC)[C@]2(C)[C@H](C)CC[C@]3(CCC(=O)[C@H]32)[C@@H](C)[C@@H]1O [PCM-0215106] |  |  |
|  | COc1ccc(C=O)cc1 [PCM-0216000] | 17% |  |
|  | CC(=O)O[C@H]1C[C@@H]2CC[C@@H]3[C@H](CC[C@@]4(C)[C@H]3C[C@H]([N+]3(C)CCCCC3)[C@@H]4OC(C)=O)[C@@]2(C)C[C@@H]1[N+]1(C)CCCCC1 [PCM-0214687] | -21% |  |
|  | CN1CCC(c2c[nH]c3ccc(O)cc23)CC1 [PCM-0064588] |  | BTK inhibition (%) (BTK [1]): 16.3% |

| Compound | BTK inhibition (%) (BTK [1]; [3]) | BTK inhibition (%) (BTK [1]; [4]) | further results |
| --- | --- | --- | --- |
| CC[C@]12C=CCN3CC[C@]4(C(=C(C(=O)OC)C1)Nc1ccccc14)[C@@H]32 [PCM-0215925] | 13.9% |  | inhibition at 10 µM (BTK [2]): 10.8% |
